Here are results for two molecules from patent US12178791B2, “Haloallylamine sulfone derivative inhibitors of lysyl oxidases and uses thereof” (Syntara Limited, priority 2018, dated 2024).

Series [1] addresses Bovine LOX (Bos taurus (Bovine), UniProt P33072). Nature of the series: LOX inhibition, Amplex Red oxidation assay. As to conditions: 30 min preincubation at 37 °C, putrescine substrate. Format: biochemical. The essentials: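 Bovine LOX in 1.2 M urea, 50 mM sodium borate pH 8.2, with 1 μM mofegiline and 0.5 mM pargyline unless recombinant or purified. The added mix held putrescine at twice KM (20 mM for LOX), 120 μM Amplex Red and 1.5 U/mL HRP.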

For series [2], the target named is LOXL2 (Homo sapiens (Human), UniProt Q9Y4K0). Put plainly: Jump dilution experiment, sustained inhibition of LOXL2.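 Further: 30× IC50 used only where needed so inhibitor exceeds enzyme concentration.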 It counts as biochemical. The following applies: jump dilution after 40 min at 37 °C with 10× or 30× IC50; vs non-inhibited controls. On the procedure: Jump Dilution experiment: The assay was developed using a 96 well format and the starting enzyme concentration was set 100 times higher than for the inhibition studies. […] After the incubation, the mixture was diluted 50× in assay buffer, followed by a further 2× dilution in Amplex Red-horseradish peroxidase-putrescine reaction mix (same as per the inhibition studies) prior to the fluorescent measurement. Results were expressed in % recovery of the signal after a specified time by comparison with non-inhibited controls.
Chain of LOXL2 (Q9Y4K0 26-774): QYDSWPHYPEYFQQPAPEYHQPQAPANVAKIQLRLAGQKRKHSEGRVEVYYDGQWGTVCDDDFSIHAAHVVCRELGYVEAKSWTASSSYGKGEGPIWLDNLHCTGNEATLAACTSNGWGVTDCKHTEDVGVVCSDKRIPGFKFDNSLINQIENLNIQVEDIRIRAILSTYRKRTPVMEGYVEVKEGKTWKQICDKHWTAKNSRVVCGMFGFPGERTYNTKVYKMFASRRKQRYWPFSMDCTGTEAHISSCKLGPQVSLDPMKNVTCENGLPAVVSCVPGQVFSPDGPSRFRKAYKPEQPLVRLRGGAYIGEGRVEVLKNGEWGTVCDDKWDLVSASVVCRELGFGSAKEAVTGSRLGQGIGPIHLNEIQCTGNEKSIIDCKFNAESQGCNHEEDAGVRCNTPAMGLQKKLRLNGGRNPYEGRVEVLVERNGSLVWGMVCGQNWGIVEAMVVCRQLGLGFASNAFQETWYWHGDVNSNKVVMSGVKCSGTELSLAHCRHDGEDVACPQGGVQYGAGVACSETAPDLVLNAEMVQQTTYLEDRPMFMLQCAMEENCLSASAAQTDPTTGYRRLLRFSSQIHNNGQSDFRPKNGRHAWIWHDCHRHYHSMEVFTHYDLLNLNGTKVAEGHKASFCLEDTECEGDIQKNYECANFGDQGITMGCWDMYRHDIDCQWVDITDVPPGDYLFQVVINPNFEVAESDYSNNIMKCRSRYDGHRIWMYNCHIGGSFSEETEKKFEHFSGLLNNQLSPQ

The nature of series [3]: In vivo pharmacokinetics, plasma concentration after p.o. dosing. More on the design: species or system Wistar rats. The following applies: for concentration at 0.25 h / concentration at 0.5 h / concentration at 1 h / concentration at 2 h / concentration at 3 h / concentration at 5 h / concentration at 8 h / concentration at 4 h: male, Wistar, plasma, po, rat; for concentration at 0.5 h: 0.50 hours; for plasma concentrations relative to the IC50: rat plasma, after 8 hours. On the procedure:
Test compounds (10 mg/kg and 30 mg/kg in PBS, p.o. n=3) were administered to 7-9 weeks old male Wistar rats. Test compound blood samples were collected at time points from 0.25 h-8.00 h (Compound 1); 0.5 h-8.00 h (Compound 33) post administration, from tail vein.
Sample preparation: 20 μL of calibration samples (in single), QC samples (in duplicate) and rat plasma samples were mixed with 60 μL acetonitrile containing internal standard (IS; 200 ng/mL of tolbutamide and 50 ng/mL propanolol) in Eppendorf tubes. The mixture was vortexed for 1 min, then centrifuged for 10 min, 50 μL of supernatant was transferred to a 96 well-plate with 100 μL water. After shaking for 10 min, 10 μL was injected into the liquid chromatography mass spectrometry (LC-MS/MS) system for analysis.
HPLC: Agilent 1100; Mass Spectrometer: API 4000
Column: Phenomenex Gemini C18 5 μm 50×4.6 mm
Mobile phase: 0.1% formic acid in water, 0.1% formic acid in acetonitrile
HPLC: Shimadzu LC30AD; Mass Spectrometer: API 4000
For dilution samples: 10 μL sample was added to 90 μL blank rat plasma. The mixture was precipitated with 300 μL acetonitrile containing IS in Eppendorf tubes. The mixture was vortexed for 1 min, then centrifuged for 10 min, 50 μL supernatant was transferred to a 96 well-plate with 100 μL water. After shaking for 10 min, 10 μL was injected into the LC-MS/MS system for analysis. Determined, mean plasma concentrations for Compounds 1 and 33 are shown in Table 5 and Table 6 respectively.

Series [4] concerns lysyl oxidase. Nature of the series: Target engagement: lysyl oxidase activity, ear slice assay. Format: in vivo, Wistar rats. On the procedure: The ears, collected right after sacrifice of the rats (treated or untreated with a LOX inhibitor), were snap frozen in dry ice for −80° C. storage. For the assay, 5×5 mm samples were cut (still half-thawed), embedded in agarose gel and cut in cross sections […] thick (vibratome). The thin sections were collected in ice cold PBS containing protease inhibitors, and allowed to rest in the bath for 2-3 hours, to allow soluble contaminants to diffuse away prior to the assay. For a 96 well plate format: three thin slices were collected, gently blotted dry on Kimwipe, and transferred to each well containing 100 μl of assay buffer (1.2 M urea, 50 mM sodium borate buffer, pH 8.2), for a 30 minute pre-incubation at 37° C. in presence of 1 μM mofegiline and 500 μM pargyline. BAPN (500 μM) had been added to all the “low control” wells. A minimum of three replicas were performed for each condition.
After pre-incubation, 100 μl of Amplex Red-horseradish peroxidase (HRP) mix (120 μM Amplex Red, 1.5 U/mL HRP, 20 mM putrescine) were added to all wells, and the plate was read at 37° C. every 2.5 minutes for 13 times, (544 nm excitation and 590 nm emission, on a BMG Clariostar, in orbital, top reading mode). The slope of the kinetic curves, subtracted by the values obtained in the low controls (in presence of BAPN), was considered a measure of the specific lysyl oxidase activity in the sample.
Young male Wistar rats were given a single oral dose (10 or 30 mg/kg) of Compounds 1 or 33 (Table 5 and 6 respectively) and the enzymatic activity was measured in tissues with a high basal activity at this age, in the ear (FIGS. 2a and b; Compound 1 and 33 respectively) and aorta (FIG. 3c; Compound 33 only). The responses were normalised to the activity measured in animals treated with saline (control).

SMILES strings stand for the structures. Entries after “also recorded” stand apart in the source; their conditions may differ. Structures can show the parent of a compound that is named as a salt.

Chain of Bovine LOX (P33072 170-418): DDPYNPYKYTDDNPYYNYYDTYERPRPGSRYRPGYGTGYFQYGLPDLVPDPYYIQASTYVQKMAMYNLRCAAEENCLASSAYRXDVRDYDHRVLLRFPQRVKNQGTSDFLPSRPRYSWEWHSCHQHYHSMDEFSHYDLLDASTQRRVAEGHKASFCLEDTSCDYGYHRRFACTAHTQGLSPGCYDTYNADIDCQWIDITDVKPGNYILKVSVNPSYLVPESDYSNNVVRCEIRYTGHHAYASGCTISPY

Broadly, the IC50 is the concentration needed to halve the response being measured. Low values mean greater potency in that assay, high ones weaker potency in that assay. The molecule `NC/C=C(\F)CS(=O)(=O)c1ccccc1` [Compound 1, (Z)-3-fluoro-4-(phenylsulfonyl)but-2-en-1-amine hydrochloride] displayed an IC50 in series [1] below 10 µM. The “LOXL2 - Recovery of activity. (%)” value in series [2] worked out at 9.5%. Besides, in series [3] (10 mg/kg p.o.), the concentration at 0.25 h turned out to be 379 ng/mL, the concentration at 0.5 h turned out to be 736 ng/mL, the concentration at 1 h is 450 ng/mL and the concentration at 2 h was determined as 134 ng/mL. In series [3] (10 mg/kg p.o.), this molecule gave a concentration at 3 h of 66.4 ng/mL, a concentration at 5 h of 27.2 ng/mL and a concentration at 8 h of 6.4 ng/mL. Besides, in series [3] (30 mg/kg p.o.), the concentration at 0.25 h was determined as 1060 ng/mL, the concentration at 0.5 h worked out at 2090 ng/mL, the concentration at 1 h came to 1200 ng/mL and the concentration at 2 h came to 657 ng/mL. In series [3] (30 mg/kg p.o.), this molecule displayed a concentration at 3 h of 238 ng/mL, a concentration at 5 h of 41.3 ng/mL and a concentration at 8 h of 13.5 ng/mL. For the same molecule, the “plasma concentrations relative to the IC50” value in series [3] is recorded as “far below the IC50”. Moreover, the “LOX activity in rat ear” value in series [4] (24 hours after single oral dose at 10 and 30 mg/kg, vs saline control, hydrochloride) is listed as “dose-dependent block; also recorded: dose dependent, sustained reduction”.

In series [1], `NC/C=C(\F)CS(=O)(=O)c1cccc2cccnc12` [Compound 33, (Z)-3-fluoro-4-(quinolin-8-ylsulfonyl)but-2-en-1-amine dihydrochloride] came in with an IC50 below 10 µM. Also, the “LOXL2 - Recovery of activity. (%)” value in series [2] stood at 6.9%. In series [3] (10 mg/kg p.o.), this molecule had a concentration at 0.5 h of 771 ng/mL, a concentration at 1 h of 548 ng/mL, a concentration at 2 h of 246 ng/mL and a concentration at 4 h of 56.4 ng/mL. For the same molecule, the concentration at 8 h in series [3] (10 mg/kg p.o.) was determined as 8.4 ng/mL. In series [3] (30 mg/kg p.o.), this molecule returned a concentration at 0.5 h of 3710 ng/mL, a concentration at 1 h of 3010 ng/mL, a concentration at 2 h of 1470 ng/mL and a concentration at 4 h of 185 ng/mL. Moreover, the concentration at 8 h in series [3] (30 mg/kg p.o.) stood at 13.7 ng/mL. Besides, the “plasma concentrations relative to the IC50” value in series [3] is recorded as “far below the IC50”. Besides, the “lysyl oxidase activity in rat tissue” value in series [4] (single high (30 mg/kg) oral dose) was “completely abolish”. In series [4] (single oral dose 30 mg/kg), the “half-life of recovery of lysyl oxidase activity (ear)” value is 48 to 72 h.
